The source of these data is US20250129032A1 (Nerio Therapeutics, Inc., priority 2022, published 2025).

The test system of assay [1] is murine B16F10 melanoma cell line. Briefly: B16F10 IFNγ-induced cellular growth inhibition assay (xCELLigence RTCA). The note with it: Mus musculus, B16-F10, 48 h; read-out: B16 IFNγ Mediated Growth Inhibition Assay: AVG IC50. It counts as cell-based. The method, then: Example B: B16F10 Cellular Growth Inhibition Assay Compound activity was determined using an interferon gamma (IFNγ)-induced cellular growth inhibition assay with the murine B16F10 melanoma cell line on an Agilent xCELLigence Real-Time Cell Analysis platform (RTCA). RTCA E-Plate View 96 plates (Agilent, 300601010) were pre-equilibrated with 50 μL of assay media (DMEM+10% FBS, Gibco 10566-024, Gibco 10082-147) at 37° C. in a humidified incubator before taking an initial measurement of impedance (sweep). B16F10 cells cultured in assay media were dissociated with TrypLE Express (Gibco 12605-010) for five minutes at 37° C., diluted in 3 volumes of assay buffer, centrifuged for 5 minutes at 500×g at room temperature before diluting cells to 7,700 cells/mL in assay media, plating 130 μL/well (1,000 cells/well) in the inner 60 wells of the assay plate, and adding 150 μL of assay media to the outer wells of the plate. Cells were incubated at room temperature for 20 min to allow cells to settle before placing them in the xCELLigence reader and incubating overnight at 37° C., sweeping wells every 15 minutes. After 24 hours, well readings were paused, plates were removed from the incubator and compounds were added using a Tecan D300e dispenser. All wells were normalized to a final concentration of 0.5% DMSO. Following a 30 min incubation at 37° C., recombinant mouse IFNγ (R&D Systems™ 485MI100) was diluted to 10 ng/mL in assay media and 20 μL was added to assay wells (1 ng/mL final concentration). Assay plates were placed in the xCELLigence reader and swept every 15 minutes. After 48 hours, well readings were normalized to the time point immediately preceding compound addition and the area under the growth curve (AUC) was calculated by the RTCA software and exported.

Assay [2] concerns the target untagged, full-length human PTPN2 (TC45) (1-387) protein (Homo sapiens (Human), UniProt P17706). Briefly: Enzymatic assay used to determine potency of PTPN2 inhibitors (DiFMUP substrate). It counts as biochemical. To be noted: 0.5 nM PTPN2, 100 μM DiFMUP, 30 min at room temperature. The source says:
Compounds were subsequently added using a Tecan D300e dispenser. […] A four-parameter curve fit was used to determine IC50 values from % inhibition data.

untagged, full-length human PTPN2 (TC45) (1-387) protein, sequence (P17706 other isoform, or with tags, fused parts or gaps): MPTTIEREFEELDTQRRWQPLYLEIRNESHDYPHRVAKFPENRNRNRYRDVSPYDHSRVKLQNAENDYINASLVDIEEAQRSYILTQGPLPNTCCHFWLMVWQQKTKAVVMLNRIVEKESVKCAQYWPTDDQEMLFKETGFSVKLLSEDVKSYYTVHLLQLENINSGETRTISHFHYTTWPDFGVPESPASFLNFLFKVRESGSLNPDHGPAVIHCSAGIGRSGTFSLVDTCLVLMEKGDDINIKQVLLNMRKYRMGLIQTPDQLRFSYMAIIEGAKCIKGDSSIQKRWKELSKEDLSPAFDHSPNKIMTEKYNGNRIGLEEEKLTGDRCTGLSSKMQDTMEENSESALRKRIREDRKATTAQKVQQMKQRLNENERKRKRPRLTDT

As to `O=C1CN(c2c(O)cc3c(c2F)CCCCC3)S(=O)(=O)N1` [Example 29, 5-(1-fluoro-3-hydroxy-6,7,8,9-tetrahydro-5H-benzo[7]annulen-2-yl)-1,2,5-thiadiazolidin-3-one 1,1-dioxide], the results for the IC50 in assay [1] and in assay [2] were 13600 nM and 109 nM, respectively.

For the compound `CC(C)CCN(C)C1CCCc2cc(O)c(N3CC(=O)NS3(=O)=O)c(F)c2C1` (stereo not shown) [Example 28, 5-(1-fluoro-3-hydroxy-8-(isopentyl(methyl)amino)-6,7,8,9-tetrahydro-5H-benzo[7]annulen-2-yl)-1,2,5-thiadiazolidin-3-one 1,1-dioxide], the IC50 was above 61200 nM in assay [1] and 39.9 nM in assay [2].

`CN(C)CCC1CCc2cc(O)c(N3CC(=O)NS3(=O)=O)c(F)c2CC1` (stereo not shown) [Example 33]: in assay [2], the IC50 was 21.1 nM.

With `CNC[C@H]1CCc2cc(O)c(N3CC(=O)NS3(=O)=O)c(F)c2CC1` (single isomer, unassigned) [Example 23], the values for the IC50 in assay [1] and in assay [2] were 2160 nM and 2 nM, respectively.

Regarding `CC(C)CCN[C@H]1CCCc2cc(O)c(N3CC(=O)NS3(=O)=O)c(F)c2C1` (single isomer, unassigned) [Example 26], the half-inhibitory concentration (IC50) in assay [1] was 5020 nM; in assay [2], 19.8 nM.

Regarding `CNC[C@@H]1CCc2cc(O)c(N3CC(=O)NS3(=O)=O)c(F)c2CC1` (single isomer, unassigned) [Example 24], the IC50 in assay [2] turned out to be 75 nM.

As to `O=C1CN(c2c(O)cc3c(c2F)CC[C@@H](N2CCC4(CCC4)C2)CC3)S(=O)(=O)N1` (single isomer, unassigned) [Example 16], the IC50 in assay [1] was found to be 6660 nM; in assay [2], 10.7 nM.

For `CC(C)CCN[C@@H]1CCCc2cc(O)c(N3CC(=O)NS3(=O)=O)c(F)c2C1` (single isomer, unassigned) [Example 27], the IC50 in assay [1] was above 71100 nM; in assay [2] it was 215 nM.

`O=C1CN(c2c(O)cc3c(c2F)CCNCC3)S(=O)(=O)N1` [Example 30, 5-(6-fluoro-8-hydroxy-2,3,4,5-tetrahydro-1H-benzo[d]azepin-7-yl)-1,2,5-thiadiazolidin-3-one 1,1-dioxide]: the IC50 came to 996 nM in assay [1] and 2.28 nM in assay [2].

Turning to `CC(C)CCNC1CCCc2cc(O)c(N3CC(=O)NS3(=O)=O)c(F)c2C1` (stereo not shown) [Example 25, 5-(1-fluoro-3-hydroxy-8-(isopentylamino)-6,7,8,9-tetrahydro-5H-benzo[7]annulen-2-yl)-1,2,5-thiadiazolidin-3-one 1,1-dioxide], the IC50 in assay [1] stood at 7080 nM; in assay [2], 25.9 nM.

`O=C1CN(c2c(O)cc3c(c2F)CC[C@H](N2CCC4(CCC4)C2)CC3)S(=O)(=O)N1` (single isomer, unassigned) [Example 17]: the concentration for half-maximal inhibition (IC50) in assay [1] worked out at 13500 nM; in assay [2], 93 nM.

Regarding `CCN[C@H]1CCc2cc(O)c(N3CC(=O)NS3(=O)=O)c(F)c2CC1` (single isomer, unassigned) [Example 20], the results for the IC50 in assay [1] and in assay [2] were 4130 nM and 12.7 nM, respectively.

In the case of `N[C@H]1CCc2cc(O)c(N3CC(=O)NS3(=O)=O)c(F)c2CC1` (single isomer, unassigned) [Example 6], the figures for the IC50 in assay [1] and in assay [2] were 1630 nM and 5.67 nM, respectively.

Consider `O=C1CN(c2c(O)cc3c(c2F)CC[C@@H](NCCC2CCCC2)CC3)S(=O)(=O)N1` (single isomer, unassigned) [Example 10], for which the results for the IC50 in assay [1] and in assay [2] were 6630 nM and 5 nM, respectively.

Take `CN(C)[C@@H]1CCc2cc(O)c(N3CC(=O)NS3(=O)=O)c(F)c2CC1` (single isomer, unassigned) [Example 19]: the values for the IC50 in assay [1] and in assay [2] were 2690 nM and 12.4 nM, respectively.

Consider `CCN[C@@H]1CCc2cc(O)c(N3CC(=O)NS3(=O)=O)c(F)c2CC1` (single isomer, unassigned) [Example 21], for which the IC50 in assay [1] was 54000 nM; in assay [2], 374 nM.

In assay [2], `NCC[C@@H]1CCc2cc(O)c(N3CC(=O)NS3(=O)=O)c(F)c2CC1` (single isomer, unassigned) [Example 1] registered an IC50 of 5.07 nM.

As for `CCNC1CCc2cc(O)c(N3CC(=O)NS3(=O)=O)c(F)c2CC1` (stereo not shown) [Example 5], the half-inhibitory concentration (IC50) in assay [1] was determined as 2490 nM; in assay [2] it was 17.5 nM.

Consider `CC(C)(C)NC1CCc2cc(O)c(N3CC(=O)NS3(=O)=O)c(F)c2CC1` (stereo not shown) [Example 13], for which the concentration for half-maximal inhibition (IC50) in assay [1] was above 100000 nM; in assay [2] it was 85.3 nM.

As for `CN(C)C1CCc2cc(O)c(N3CC(=O)NS3(=O)=O)c(F)c2CC1` (stereo not shown) [Example 4], the figures for the 50% inhibitory concentration (IC50) in assay [1] and in assay [2] were 2890 nM and 14.9 nM, respectively.

Take `O=C1CN(c2c(O)cc3c(c2F)CC[C@H](NCCC2CCCC2)CC3)S(=O)(=O)N1` (single isomer, unassigned) [Example 11]: the IC50 is above 100000 nM in assay [1] and 149 nM in assay [2].

With `O=C1CN(c2c(O)cc3c(c2F)CCC(O)CC3)S(=O)(=O)N1` (stereo not shown) [Example 8], the results for the IC50 in assay [1] and in assay [2] were 1590 nM and 47.3 nM, respectively.

As to `O=C1CN(c2c(O)cc3c(c2F)CCC(NC2CCCC2)CC3)S(=O)(=O)N1` (stereo not shown) [Example 12], the results for the IC50 in assay [1] and in assay [2] were 4060 nM and 19.8 nM, respectively.

For the compound `CNC1CCc2cc(O)c(N3CC(=O)NS3(=O)=O)c(F)c2CC1` (stereo not shown) [Example 3], the IC50 in assay [1] was determined as 5140 nM; in assay [2] it was 16.5 nM.

The compound `CC(C)CCNC1CCc2cc(O)c(N3CC(=O)NS3(=O)=O)c(F)c2CC1` (stereo not shown) [Example 22] had an IC50 in assay [2] of 24.5 nM.

Consider `O=C1CN(c2c(O)cc3c(c2F)CC[C@H](N2CCCC2)CC3)S(=O)(=O)N1` (single isomer, unassigned) [Example 15], for which the values for the IC50 in assay [1] and in assay [2] were 16800 nM and 79.5 nM, respectively.

For `CN(C)[C@H]1CCc2cc(O)c(N3CC(=O)NS3(=O)=O)c(F)c2CC1` (single isomer, unassigned) [Example 18], the results for the IC50 in assay [1] and in assay [2] were above 100000 nM and 879 nM, respectively.

In assay [2], `NCC[C@H]1CCc2cc(O)c(N3CC(=O)NS3(=O)=O)c(F)c2CC1` (single isomer, unassigned) [Example 2] gave an IC50 of 176 nM.

In the case of `O=C1CN(c2c(O)cc3c(c2F)CC[C@@H](N2CCCC2)CC3)S(=O)(=O)N1` (single isomer, unassigned) [Example 14], the IC50 in assay [1] amounted to 15200 nM; in assay [2] it was 13.6 nM.

With `O=C1CN(c2c(O)cc3c(c2F)CCC(N2CCCC2)CC3)S(=O)(=O)N1` (stereo not shown) [Example 9], the IC50 in assay [1] came to 4150 nM; in assay [2], 21.6 nM.

As for `N[C@@H]1CCc2cc(O)c(N3CC(=O)NS3(=O)=O)c(F)c2CC1` (single isomer, unassigned) [Example 7], the figures for the IC50 in assay [1] and in assay [2] were above 100000 nM and 444 nM, respectively.

Consider `CC(C)CCCN1CCc2cc(O)c(N3CC(=O)NS3(=O)=O)c(F)c2CC1` [Example 31, 5-(6-fluoro-8-hydroxy-3-(4-methylpentyl)-2,3,4,5-tetrahydro-1H-benzo[d]azepin-7-yl)-1,2,5-thiadiazolidin-3-one 1,1-dioxide], for which the IC50 was 1730 nM in assay [1] and 1.06 nM in assay [2].

Regarding `N#CCC1CCc2cc(O)c(N3CC(=O)NS3(=O)=O)c(F)c2CC1` (stereo not shown) [Example 32], the IC50 in assay [1] was 14900 nM; in assay [2], 46.9 nM.

As usually defined, the IC50 is the midpoint of a concentration-inhibition curve.
